Test results: US12312346B2, “Pyridopyrimidine compounds and methods of their use” (Tufts Medical Center, Inc., priority 2018, dated 2025)
Entries after “also recorded” stand apart in the source; their conditions may differ.

How the values were obtained:
[1] = test system: human leukemia cell line HPBALL (with Notch1 mutations); assay: Cell cycle (PI staining, S-G2-M cells) and cell number, HPBALL; format: cell-based
Method: FIG. 1A is a series of charts showing representative cell cycle profiles of human leukemia cell line HPBALL (with Notch1 mutations) treated with a vehicle (V) (for ribociclib (LEE) or compound GD) or LEE or compound GD for 6 days at 1, 5, 10, and 20 μM.
FIG. 1B is a histogram summarizing the cell cycle distribution of the HPBALL cell line treated with compound GD, as described for FIG. 1A. Data shown are mean±S.D. (n=6); *P<0.05 vs its vehicle controls, t-test.
FIG. 1C is a histogram summarizing the cell cycle distribution of the HPBALL cell line treated with ribociclib (LEE), as described for FIG. 1A. Data shown are mean±S.D. (n=6); *P<0.05 vs its vehicle controls, t-test.
FIG. 1D is a chart the percentage of S-G2-M cells in FIGS. 1B and 1C. IC50 is the concentration of an inhibitor where the response (here is the inhibition of proliferation) is reduced by half.
FIG. 1E is a bar graph summarizing the cell numbers of HPBALL cells treated with either GD with different doses or LEE (20 μM) for 6 days. Data shown are mean±S.D. (n=6); *P<0.05 vs vehicles (0) control, t-test.
HCl salt of 6-acetyl-5-methyl-2-((4-(piperazin-1-ylmethyl)thiazol-2-yl)amino)pyrido[2,3-d]pyrimidin-7(8H)-one (Compound GD) prepared in Example 1 was examined for its inhibitory activity in cancer cell lines and WT and CDK6^−/− mouse embryonic fibroblasts (MEFs) and stromal vascular fractions (SVFs). […]
(§1) Table 2: Experimental Procedures: sensitivity to CDK6 kinase activity inhibition was tested by incubating different cell lines in the presence of CDK6 inhibitor GD007/PBS for either 24 hours for detecting the status of pRB-780 phosphorylation, or 5 days for determining the effect of GD007 on cell proliferation. (1) By immunoblotting (WB), we will detect phospho-pRB-S^780, one of the substrates of CDK6 kinase; (2) By using FACS analysis, we will stain treated cells with Propidium Iodide (PI), a commonly used fluorescent intercalator, to measure the subpopulation of cell cycle to reveal any impact of CDK6 inhibition on cell proliferation; (3) cell numbers will be counted using hemocytometer.

[2] = test system: human lung cancer cell line A549; assay: Cell cycle (PI staining, S-G2-M cells) and pRB immunoblot, A549; format: cell-based
Method: FIG. 4A is a series of charts showing representative cell cycle profiles of human lung cancer cell line A549 treated with a vehicle (V) (for palbociclib (PD) or compound GD), PD (0.5 μM), or compound GD at 0.005, 0.05, 0.5, and 5 μM for 6 days.
FIG. 4B is a histogram showing the cell cycle distribution of A549 cell line in FIG. 4A. Data shown are mean±S.D. (n=6); *P<0.05 vs its vehicle controls, t-test.
FIG. 4C is a chart showing the percentage of S-G2-M cells in FIG. 4B. IC50 for compound GD is ca. 0.05 μM.
FIG. […] Tubulin was used as a loading control.
as §1

[3] = test system: mouse KO-MEFs (CDK6^−/− MEFs); assay: Cell cycle and cell number, CDK6-/- MEFs (KO-MEFs); format: cell-based
Method: FIG. 6E is a series of charts showing representative cell cycle profiles of mouse KO-MEFs treated with a vehicle (V), PD (0.5 μM), or compound GD at 1, 5, 10, and 20 μM for 6 days.
FIG. 6F is a histogram summarizing the cell cycle distribution in FIG. 6E. Data shown are mean±S.D. (n=6); *P<0.05 vs its vehicle control, t-test.
FIG. 6G is a bar graph summarizing the cell numbers of KO-MEFs treated with PD (0.5 μM) or compound GD at different doses for 6 days. Data shown are mean±S.D. (n=6); *P<0.05 vs its vehicle control, t-test.
HCl salt of 6-acetyl-5-methyl-2-((4-(piperazin-1-ylmethyl)thiazol-2-yl)amino)pyrido[2,3-d]pyrimidin-7(8H)-one (Compound GD) prepared in Example 1 was examined for its inhibitory activity in cancer cell lines and WT and CDK6^−/− mouse embryonic fibroblasts (MEFs) and stromal vascular fractions (SVFs). MEFs and SVFs are enriched with mesenchymal stem cells (MSC) and pre-adipocytes which can differentiate into a variety of cell types, including adipocytes.

[4] = test system: phosphorylated pRB at SER-780 in HELA cells; assay: Immunoblot of phosphorylated pRB (SER-780), HELA; format: cell-based
Method: FIG. 5E is an image of a representative immunoblot showing the levels of phosphorylated pRB at SER-780 in HELA cells following treatment of these cells with a vehicle, PD, or compound GD for 24 hours. Tubulin was used as loading control.
as §1

[5] = test system: differentiated SVF cells (beige cell formation); assay: Oil Red O staining of differentiated SVF cells with BAT inducers; format: cell-based; conditions: GD 5 μM, FIG. 8B
Method: FIG. 8B is an image of Oil Red O staining of differentiated SVF cells treated with a vehicle or compound GD (5 μM) in the presence of brown adipose tissue (BAT) inducers. Scale bar: 100 μM
Beige cells are associated with protection against obesity and metabolic syndrome (WO 2017/161253). Accordingly, compound GD and related compounds of the invention can be used for treating obesity and related metabolic diseases.

[6] = test system: A549 (lung cancer cells) xenograft tumors; assay: A549 xenograft mouse model; format: in vivo; conditions: female Nod/Scid mice
Method: A549 cells (3×10^5/each side) were inoculated ectopically in female Nod/Scid mice. One week after inoculation, tumor bearing mice were treated with GD at 200 mg/kg/day or PBS by oral gavage for 21 days. Data shown are mean±S.D. (n=8 for each group), *p<0.05, t-test, GD vs. PBS.
FIG. 10B is a graph showing body weight of two groups of mice during the observation time. Body weights shown are mean±S.D. (n=4 for each group).
We examined the therapeutic efficacy of GD against A549 (lung cancer cells) xenograft tumors. A549 cells (3×10^5 per side in 100 μl of 50% Matrigel) were inoculated ectopically in female Nod/Scid mice on both sides. When tumor sizes reached ˜50 mm^3, animals were divided into 2 groups (n=4 mice per group), and treated with PBS or GD at dose of 200 mg/kg/day over a 21-day period (Kwapisz, supra).
Tumor sizes were measured with standard calipers every day and tumor volumes were calculated using standard methods (caliper measurements are commonly collected along the longest two dimensions of the tumor x/y plane only, with the z-axis dimension assumed to be the same as the shortest dimension) (Tomayko et al., Cancer Chemother. Pharmacol. 24:148-154, 1989). Weekly body weights were measured at designed times. At the end of the experiments, all of the tumors were isolated from the mice and weighed.

[7] = test system: Prostate Cancer: PC-3; assay: pRB-780 immunoblot, PC-3; format: cell-based; conditions: WB: P-RB-780
Method: as §1

For CC(=O)c1c(C)c2cnc(Nc3nc(CN4CCNCC4)cs3)nc2[nH]c1=O [Compound GD, 6-acetyl-5-methyl-2-((4-(piperazin-1-ylmethyl)thiazol-2-yl)amino)pyrido[2,3-d]pyrimidin-7(8H)-one], the IC50 ([1]; Homo sapiens, 144 h, HPBALL, 6 days, read-out: IC50 (inhibition of proliferation, percentage of S-G2-M cells)) was about 4 µM, the “Compound GD Efficacy” value ([1]; Leukemic cells: HPBALL, PI Staining, and cell number counting) was “Efficacious” and the “growth of lung cancer cell line A549” value ([2]; FIGS. 4A-4D) was “inhibits growth”. The IC50 ([2]; Homo sapiens, 144 h, A549, 6 days, read-out: IC50 (percentage of S-G2-M cells)) was about 50 nM, the “Compound GD Efficacy” value ([2]; Lung Cancer: A549, WB: P-RB-780, PI staining) was “Efficacious” and the “proliferation of CDK6−/− MEFs” value ([3]; 6 days, GD 1-20 μM, PD 0.5 μM) was “little effect”. For the same molecule, the “preference for CDK6 over CDK4” value ([3]; concluded from WT versus CDK6−/− MEFs and SVFs) was “preferentially inhibits CDK6 over CDK4”, the “Compound GD Efficacy” value ([4]; Cervical Cancer: Hela, WB: P-RB-780) was “Efficacious” and the pRB phosphorylation ([4]; cervical cancer cell line (Hela cells), 24 hours) was “inhibits pRB phosphorylation”. The beige cell formation [5] was “induced beige cell formation”, the “tumor weights vs PBS” value ([6]; 200 mg/kg/day for 21 days, end of experiment, FIGS. 10D-10E) was “reduced; also recorded: decreased tumor weights” and the “tumor volumes (xenograft tumor growth) vs PBS” value ([6]; 200 mg/kg/day oral gavage for 21 days, FIG. 10A) was “reduced; also recorded: suppressed xenograft tumor growth”. The “Compound GD Efficacy” value [7] was “No”.
